Each structure is given as a SMILES string.

The values below come from article PMC7504104, “Dietary Intake of Rosmarinic Acid Increases Serum Inhibitory Activity in Amyloid A Aggregation and Suppresses Deposition in the Organs of Mice” (International Journal of Molecular Sciences, 2020).

In this assay the target is T1, recombinant mouse SAA 1.1 (mSAA) (Mus musculus, UniProt P05366).
T1 construct: gene Saa1; cDNA in pET-15b, expressed in E. coli Rosetta, Ni Sepharose purified
T1 sequence (P05366 20-122): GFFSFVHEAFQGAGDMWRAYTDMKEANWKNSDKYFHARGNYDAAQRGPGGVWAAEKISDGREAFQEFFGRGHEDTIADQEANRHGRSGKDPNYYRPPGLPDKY
Nature of the assay: quantum-dot fluorescence imaging of amyloid aggregation inhibition (MSHTS). The format is biochemical.

Usually EC50 stands for the midpoint of the concentration-response curve. Consider `O=C(/C=C/c1ccc(O)c(O)c1)O[C@H](Cc1ccc(O)c(O)c1)C(=O)O` [RA, rosmarinic acid], for which the half-maximal effective concentration (EC50) was determined as 33.2 ± 2.19 µM.
